Consider three compounds from PMC11434840, “Discovery of Benzopyrone-Based Candidates as Potential Antimicrobial and Photochemotherapeutic Agents through Inhibition of DNA Gyrase Enzyme B: Design, Synthesis, In Vitro and In Silico Evaluation” (Pharmaceuticals, 2024).

The test system of data set [1] is Bacillus subtilis ATCC 14579. Kind of data set: Photosensitizing assay (MIC before and after UV irradiation, agar cup-plate). Format: cell-based. To be noted: Bacillus subtilis, ATCC14579, light or radiation study, B. subtilis. On the procedure: The photosensitizing activity was determined using the agar cup-plate method (described in Section 2.3) with Hi-Media agar medium. The antibacterial activity against Bacillus subtilis ATCC 14579 was measured before and after exposure to UV lamp (365 nm). The diameters of the inhibition zones were measured in mm and the results were compared with xanthotoxin. The tested organism used was Bacillus subtilis.
For the photosensitizing activity, xanthotoxin was used as a reference drug and DMF as a negative control. The minimum inhibitory concentrations (MIC) were determined using the agar cup-plate method. Each test compound (50 mg) was dissolved in 1 mL DMF (50 mg mL^−1), which was used as a stock solution to carry out the twofold dilution technique. The sample size for all the compounds was adjusted to 0.1 mL. The solution of the test compound (0.1 mL) was added to the cups. The plates were divided into test plates and duplicate plates. Before irradiation, the test plates were incubated in the dark at 37 °C for 3 h to permit the diffusion of the tested compounds through the agar layer. The duplicate plates were incubated overnight and used as a control for the determination of the antibacterial activity. The covers were removed from the test plates, and the dishes were exposed to UV lamp (365 nm) for 20 min. After irradiation, the plates were left overnight in the dark at 37 °C. MIC, the least concentration preventing visible bacterial growth, was determined in both the control and test, indicating the antibacterial and photosensitizing activity of the tested compounds, respectively.
To evaluate the significance of the difference in the results, each experiment was repeated at least three times. […] GraphPad Prism-version 5 (GraphPad Software, Inc., La Jolla, CA, USA) was used to perform statistical analysis of the results.

Another data set has as its target T1, E. coli DNA gyrase (Escherichia coli, UniProt P0AES6).
T1 construct: purchased John Innes Enterprises Ltd
As to the kind of experiment: In vitro DNA gyrase supercoiling inhibitory assay. Format: biochemical. The note with it: mean ± SD of three separate experiments.

Data set [2] relates to Bacillus subtilis ATCC 14579. As to the kind of experiment: Antimicrobial agar cup-plate assay, B. subtilis. It is filed as cell-based. The note with it: 0.1 mL of compound in DMF, overnight incubation, mean ± SD, at least three experiments. The protocol: (§1) The antimicrobial activity of all newly synthesized compounds was determined using the agar cup-plate method using the Hi-Media agar medium. Xanthotoxin, tobramycin, and amphotericin B were used as reference drugs. All newly synthesized compounds were tested against two strains of Gram-positive bacteria (Bacillus subtilis ATCC 14579 and Staphylococcus aureus ATCC 25923), Gram-negative bacteria (Escherichia coli ATCC 25922), and yeast (Candida albicans ATCC 10231).
(§2) The nutrient agar medium consists of 0.3% of beef extract, 0.5% of peptone, 0.1% dipotassium hydrogen phosphate, and 1.5% agar. Broth cultures of the organisms were prepared by incubating slant agar seeded with the organisms overnight.
(§3) The prepared broth culture (0.02 mL) was carefully added to sterile Petri dishes. Then, 10 mL of the liquefied nutrient agar medium was poured into each dish, mixed uniformly, and allowed to solidify. Using a sterilized cork borer, cups (9 mm) were scooped out of the agar media contained in the Petri dishes. Each test compound (50 mg) was dissolved in 1 mL DMF (50 mg mL^−1), which was used as a stock solution to carry out the twofold dilution technique. A fixed volume (0.1 mL) of the tested compounds dissolved in dimethylformamide (DMF) was added. Each plate contained a cup filled with DMF to disregard the effect of solvent. Additionally, two other cups were filled with tobramycin and xanthotoxin being used as reference drugs. The plates were incubated overnight to examine the antimicrobial activity. Zones of inhibition obtained by each test compound were measured in millimeters and the results are recorded in Table 2.
(§4) GraphPad Prism-version 5 (GraphPad Software, Inc., La Jolla, CA, USA) was used for statistical analysis.

Data set [3] has as its system Escherichia coli ATCC 25922. As to the kind of experiment: Antimicrobial agar cup-plate assay, E. coli. Format: cell-based. To be noted: 0.1 mL of compound in DMF, overnight incubation, mean ± SD, at least three experiments. The protocol:
as §1, §2, §3, §4

Data set [4] concerns Staphylococcus aureus ATCC 25923. Kind of data set: Antimicrobial agar cup-plate assay, S. aureus. Format: cell-based. The note with it: 0.1 mL of compound in DMF, overnight incubation, mean ± SD, at least three experiments. On the procedure:
as §1, §2, §3, §4

The test system of data set [5] is Candida albicans ATCC 10231. Kind of data set: Antimicrobial agar cup-plate assay, C. albicans. Format: cell-based. More on the design: key to Inhibition Zone (mm) C. albicans: -: no activity. To be noted: 0.1 mL of compound in DMF, overnight incubation, mean ± SD, at least three experiments. On the procedure: as §1, §2, §3, §4
Where [6] appears, read: 20 min, after irradiation with UV lamp (365 nm) for 20 min (photosensitizing activity), 100 μL per cup, read-out: MIC (mg mL^−1) Test.
[7] abbreviates: 20 min, after irradiation with UV lamp (365 nm) for 20 min (photosensitizing activity), read-out: MIC (mM) Test.
Where [8] appears, read: without irradiation (antibacterial activity), 100 μL per cup, read-out: MIC (mg mL^−1) Control.
The mark [9] stands for this setting: without irradiation (antibacterial activity), read-out: MIC (mM) Control.
The mark [10] stands for this setting: IC50 (μM) DNA gyrase supercoiling.
Where [11] appears, read: IC50 (μg mL^−1) DNA gyrase supercoiling.

Structures are written as SMILES. Where two headings read alike, the source gives them in different places.

Experimental for E. coli DNA gyrase: The supercoiling assay, based on DNA triplex, formation [43] was performed on the black streptavidin-coated 96-well microtiter plates (Thermo Scientific Pierce). Serial dilutions of the tested compounds and standard drugs were prepared, starting from 5.0 U/mL (5.0, 2.5, 1.25, 0.625, 0.312, 0.156, and 0.078 U/mL). The plates were first rehydrated with the supplied wash buffer [20 mM Tris-HCl (pH 7.6), 137 mM NaCl 0.01% (w/v), BSA 0.05% (v/v) Tween 20] and oligonucleotide was immobilized onto the wells. The excess oligonucleotide was then washed off, and the enzyme assay was carried out in the wells.
The final reaction volume of 30 μL in buffer [35 mM Tris × HCl (pH 7.5), 24 mM KCl, 4 mM MgCl2, 2 mM DTT (dithiothreitol), 1.8 mM spermidine, 1 mM ATP, 6.5% (w/v) glycerol, 0.1 mg/mL albumin] contained 1.5 U of gyrase from E. coli, 0.75 μg of relaxed pNO1 plasmid, and 3 μL of inhibitor solution in 10% DMSO and 0.008% Tween 20. Reactions were incubated for 30 min at 37 °C and after the addition of the TF buffer [50 mM NaOAc (pH 5.0), 50 mM NaCl, and 50 mM MgCl2], which terminated the enzymatic reaction for another 30 min at rt to allow the triplex formation. The unbound plasmid was then washed off using TF buffer, and a solution of SybrGOLD stain in T10 buffer [10 mM Tris × HCl (pH 8.0) and 1 mM EDTA] was added. After mixing, the fluorescence (excitation: 495 nm, emission: 537 nm) was measured using BioTek Synergy HT microplate reader. […] GraphPad Prism-version 5 (GraphPad Software, Inc., La Jolla, CA, USA) was used to determine the IC50 values of both the tested compounds and standard drugs across the different concentrations.

Turning to `CCc1cc2c(C)cc(=O)oc2c2c(-c3ccccc3)coc12` [Compound 8a, 9-Ethyl-7-methyl-3-phenyl-5H-furo[2,3-h]benzopyran-5-one], the melting point (as a rule, the temperature of the solid-liquid transition) fell in the range of 103 to 105 °C. The MIC (usually the lowest concentration found to suppress growth) in data set [1] (setting [6]) came to 97 µg/mL. Also, in data set [1] (setting [7]), the minimum inhibitory concentration (MIC) is 0.32 mM. The MIC in data set [1] (setting [8]) is 310 µg/mL. Also, in data set [1] (setting [9]), the MIC is 1.02 mM. In addition, inhibition on E. coli DNA gyrase (setting [10]) was half-maximal at 7.89 ± 0.117 µM (IC50). The IC50 (in general, the point on the concentration scale where inhibition reaches its midpoint) against E. coli DNA gyrase (setting [11]) is 7.89 µM. For the same compound, the “Inhibition Zone (mm) B. subtilis” value in data set [2] stood at 20 ± 1.414 mm. Further, in data set [3], the “Inhibition Zone (mm) E. coli” value worked out at 30 ± 1.414 mm. Also, the “Inhibition Zone (mm) S. aureus” value in data set [4] came to 25 ± 1.414 mm. The “Inhibition Zone (mm) C. albicans” value in data set [5] is reported as “-”.
`CCc1cc2c(C)cc(=O)oc2c2c(-c3ccc(C)cc3)coc12` [Compound 8b, 9-Ethyl-7-methyl-3-(4-methylphenyl)-5H-furo[2,3-h]benzopyran-5-one] showed a melting point of 149 to 151 °C. Also, the MIC in data set [1] (setting [6]) is 97 µg/mL. The MIC in data set [1] (setting [7]) is 0.3 mM. Besides, the MIC in data set [1] (setting [8]) was 780 µg/mL. In addition, in data set [1] (setting [9]), the minimal inhibitory concentration (MIC) is 2.45 mM. This compound also registered a half-inhibitory concentration (IC50) at E. coli DNA gyrase (setting [10]) of 38.6 ± 0.513 µM. 38.6 µM corresponded to half-maximal inhibition at E. coli DNA gyrase (setting [11]) (IC50). Also, the “Inhibition Zone (mm) B. subtilis” value in data set [2] is 10 ± 1.414 mm. In data set [3], the “Inhibition Zone (mm) E. coli” value is recorded as 30 ± 1.414 mm. In addition, the “Inhibition Zone (mm) S. aureus” value in data set [4] is recorded as 30 ± 1.414 mm. In addition, the “Inhibition Zone (mm) C. albicans” value in data set [5] is given as “-”.
`CCc1cc2c(-c3ccccc3)cc(=O)oc2c2c(-c3ccccc3)coc12` [Compound 8d, 3,7-Diphenyl-9-ethyl-5H-furo[2,3-h]benzopyran-5-one] gave a melting point of 178 to 180 °C. Moreover, the MIC in data set [1] (setting [6]) turned out to be 97 µg/mL. Besides, in data set [1] (setting [7]), the MIC came out at 0.26 mM. In data set [1] (setting [8]), the MIC turned out to be 780 µg/mL. Moreover, the MIC in data set [1] (setting [9]) was 2.13 mM. The compound further showed a concentration for half-maximal inhibition (IC50) against E. coli DNA gyrase (setting [10]) of 0.76 ± 0.0223 µM. The compound further showed an IC50 against E. coli DNA gyrase (setting [11]) of 0.764 µM. In data set [2], the “Inhibition Zone (mm) B. subtilis” value was found to be 12 ± 0.8165 mm. The “Inhibition Zone (mm) E. coli” value in data set [3] stood at 30 ± 0.8165 mm. The “Inhibition Zone (mm) S. aureus” value in data set [4] amounted to 23 ± 1.414 mm. Further, the “Inhibition Zone (mm) C. albicans” value in data set [5] is reported as “-”.
